The values below come from patent publication US5211945A, “Compositions and methods for modulating the effect of TNF and IL-1” (priority 1986, dated 1993).

Numbered stars: 1 amine (or outer) side, 2 acyl side, 3 side chain; on linkers, the order of the positions; unused ones are H or OH. Bridge positions count the residues as written; N and C are the ends. Square brackets hold non-standard residues; d marks the D form. Peptide text beside a SMILES is read from it. I, II: the chains in the order shown. Actinocin(9to1) = Cc1c2oc3c(C)ccc(C(=O)[*:1])c3nc-2c(C(=O)[*:2])c(N)c1=O; NMeV = CN[C@H](C(=O)O)C(C)C; Sar = CNCC(=O)O

The subject of data set [1] is Balb/c mice. The data set can be described thus: Lethality of TNF and IL-1 in mice sensitized with Act-D or GalN. The settings on record: i.p., sensitizer injected 10 minutes before TNF or IL-1. The format is in vivo, mouse. As for the experimental part: Nine to thirteen weeks old Balb/c mice were used in all experiments. TNF, IL-1, LPS, actinomycin-D (Act-D) and D-galactosamine (GalN) were solubilized in PBS and injected i.p.; each in aliquots of 0.5 ml. For lethality determination TNF, IL-1 or LPS were administered alone or 10 minutes following injection of Act-D or GalN; for desensitization experiments mice were injected with TNF or IL-1 12 h prior to a challenge consisting of the same regimen as the lethality testing. Following treatments the mice were continuously observed for a period of 72 h in order to determine the time of their death. In all cases, mice that survived 72 h appeared completely normal at that time. […] All experiments were performed in duplicate with qualitatively the same results. Two mice were examined for each experimental point, in each of the experiments. Their actual survival time as well as the average of the survival time of the two mice used for each of the points are presented.
In an attempt to elucidate the nature of the sensitizing effect of Act-D and of GalN, it was tested whether injection of TNF or IL-1 in the absence of these agents affects the response of mice to a subsequent injection of TNF or IL-1 together with Act-D or GalN. […]

The test system of data set [2] is receptors for TNF on SV-80 cells. The data set can be described thus: Binding of radiolabelled TNF to SV-80 cells, Scatchard plot analysis. Format: cell-based, human. Conditions: Scatchard analysis of 125I-TNF binding. As for the experimental part: (PMA-4-beta-phorbol-12-myristate-13-acetate).
Binding of ^125 I-rTNF (at 3.6 ng/ml), ^125 I-rIL-1 (at 49 ng/ml) and ^125 I-rIFN-gamma (at 13 ng/ml) to the indicated cells was determined at […] as described below. Competition of IL-1 and TNF with each other for binding to their receptors was examined by applying the nonlabelled cytokines, at the indicated concentrations, simultaneously with the labelled proteins to the binding asay. The effect of pretreatment with IL-1 or TNF was examined by applying the proteins on the cells at 37° C. for 4 h prior to application of the labelled cytokines. Human TNF and IFN-gamma were radiolabelled as previously described (30, 44); the first with the chloramine T reagent to specific radioactivity of 42 Ci/g, and the second with the Bolton and Hunter reagent to specific radioactivity of 18 Ci/g. IL-1 was radioiodinated with the chloramine T reagent (31) to specific radioactivity of 40 Ci/g. Recovery of bioactivity following the iodination, as estimated by measuring the protective effect of the protein against the cytotoxicity of TNF (25) was over 95%. […] Specific binding was calculated by subtracting the values of nonspecific binding from the binding observed with the labelled cytokines alone. […]

Data set [3] deals with SV-80 cells. The data set can be described thus: Sensitization of SV-80 cells to the cytolytic effect of TNF, neutral red uptake. The format is cell-based, human. The settings on record: for Cell viability upon treatment with TNF (500 U/ml), pretreatment with IL-1 (2 U/ml), OD540 / Cell viability upon treatment with TNF (500 U/ml), pretreatment with IL-1 (2 U/ml), %: 4 h pretreatment with IL-1 2 U/ml; for Cell viability upon treatment with TNF (500 U/ml), pretreatment with IL-1 (2 U/ml), OD540 / Cell viability upon treatment with TNF (500 U/ml), pretreatment with IL-1 (2 U/ml), % / Cell viability upon treatment with TNF (500 U/ml), pretreatment with TNF (20 U/ml), OD540 / Cell viability upon treatment with TNF (500 U/ml), pretreatment with TNF (20 U/ml), %: then TNF 500 U/ml for 12 h with sensitizing agent; for Cell viability upon treatment with TNF (500 U/ml), pretreatment with IL-1 (2 U/ml), % / Cell viability upon treatment with TNF (500 U/ml), pretreatment with TNF (20 U/ml), %: % of sensitizing agent alone; for Cell viability upon treatment with TNF (500 U/ml), pretreatment with TNF (20 U/ml), OD540 / Cell viability upon treatment with TNF (500 U/ml), pretreatment with TNF (20 U/ml), %: 4 h pretreatment with TNF 20 U/ml; for Cell viability in absence of TNF, OD540: 12 h with sensitizing agent alone (cycloheximide 50 μg/ml, emetine 10 μg/ml, actinomycin D 5 μg/ml); for Cell viability upon treatment with TNF (500 U/ml), no pretreatment, OD540: TNF 500 U/ml for 12 h together with sensitizing agent; for Cell viability upon treatment with TNF (500 U/ml), no pretreatment, %: TNF 500 U/ml for 12 h with sensitizing agent, % of viability with sensitizing agent alone. Here is the method: Cytolytic and protective (desensitization) activities of the cytokines were determined in all the figures using SV-80 cells which, for measurement of cytolytic activity, were incubated with serial dilutions of the tested cytokine for 12 hours together with 50 μg/ml CHI; for measuring protective activity, they were incubated for 4 hours with the tested cytokine and then for 12 hours with TNF, at the indicated concentrations, together with 50 μg/ml CHI. The extent of cell killing was quantitated by the neutral-red uptake assay. A unit of cytolytic activity is defined as the concentration of the tested cytokine at which the amount of cells remaining viable was 50% of those that remained viable on incubation with CHI alone. A unit of protective activity is defined as that cytokine concentration protecting 50% of the cells from killing by TNF.
IL-1 or TNF provide protection not only against the cytotoxicity mediated in the presence of CHI, but also against killing of cells in which synthesis of proteins has been suppressed by other agents.
SV-80 cells following 4 h pretreatment with IL1 or TNF or without such
pretreatment were tested for their vulnerability to the cytolytic effect
of TNF applied for 12 h together with the indicated sensitizing agents.
Viability of the cells is presented as neutral red uptake (OD540)
and, in cultures with TNF, percentagewise as compared to the viability in
cultures incubated with the sensitizing agent alone.

For the compound `N[C@H]1C(O)O[C@H](CO)[C@H](O)[C@@H]1O` (stereo partly drawn) [GalN, D-galactosamine], in data set [1], the “Sensitization of mice to the lethal effect of TNF and IL-1” value was “sensitize mice to the lethal effect of TNF and IL-1”.

For `CCCCCCCCCCCCCC(=O)OC1C(C)C2(O)C(C=C(CO)CC3(O)C(=O)C(C)=CC32)C2C(C)(C)C12OC(C)=O` (stereo not drawn) [PMA, 4-beta-phorbol-12-myristate-13-acetate], the “Effect on number and affinity of binding sites for TNF” value in data set [2] was “affect only the number of binding sites for TNF and not their affinity”.

Consider `Cc1c2oc3c(C)ccc(C(=O)N[C@@H]4C(=O)N[C@H](C(C)C)C(=O)N5CCC[C@H]5C(=O)N(C)CC(=O)N(C)[C@@H](C(C)C)C(=O)O[C@@H]4C)c3nc-2c(C(=O)N[C@@H]2C(=O)N[C@H](C(C)C)C(=O)N3CCC[C@H]3C(=O)N(C)CC(=O)N(C)[C@@H](C(C)C)C(=O)O[C@@H]2C)c(N)c1=O` [actinomycin D] (I: T[dV]P[Sar][NMeV] / II: T[dV]P[Sar][NMeV]; ester I:1-I:C, II:1-II:C; linker I:N-II:N via Actinocin(9to1)), for which the “Sensitization of mice to the lethal effect of TNF and IL-1” value in data set [1] was “sensitize mice to the lethal effect of TNF and IL-1”. Moreover, in data set [3], the “Cell viability upon treatment with TNF (500 U/ml), pretreatment with IL-1 (2 U/ml), OD540” value (from here on “Cell viability upon treatment … (2 U/ml), OD540”) is listed as 0.215 OD540; the “Cell viability upon treatment with TNF (500 U/ml), pretreatment with IL-1 (2 U/ml), %” value (“Cell viability upon treatment … (2 U/ml), %” below) was determined as 88%; the “Cell viability upon treatment with TNF (500 U/ml), pretreatment with TNF (20 U/ml), OD540” value (shortened to “Cell viability upon treatment … (20 U/ml), OD540”) worked out at 0.236 OD540; the “Cell viability upon treatment with TNF (500 U/ml), pretreatment with TNF (20 U/ml), %” value (“Cell viability upon treatment … (20 U/ml), %” below) is given as 97%. In data set [3], the “Cell viability in absence of TNF, OD540” value came to 0.243 OD540; the “Cell viability upon treatment with TNF (500 U/ml), no pretreatment, OD540” value was found to be 0.052 OD540; the “Cell viability upon treatment with TNF (500 U/ml), no pretreatment, %” value is reported as 21%.

For `C[C@@H]1C[C@@H]([C@H](O)CC2CC(=O)NC(=O)C2)C(=O)[C@@H](C)C1` [cycloheximide], in data set [3], the “Cell viability upon treatment … (2 U/ml), OD540” value is recorded as 0.163 OD540; the “Cell viability upon treatment … (2 U/ml), %” value is given as 72%; the “Cell viability upon treatment … (20 U/ml), OD540” value is 0.195 OD540; the “Cell viability upon treatment … (20 U/ml), %” value is given as 86%. Besides, in data set [3], the “Cell viability in absence of TNF, OD540” value came out at 0.226 OD540; the “Cell viability upon treatment with TNF (500 U/ml), no pretreatment, OD540” value was determined as 0.020 OD540; the “Cell viability upon treatment with TNF (500 U/ml), no pretreatment, %” value was determined as 9%.

For the compound `CC[C@H]1CN2CCc3cc(OC)c(OC)cc3[C@@H]2C[C@@H]1C[C@H]1NCCc2cc(OC)c(OC)cc21` [emetine], in data set [3], the “Cell viability upon treatment … (2 U/ml), OD540” value is on record as 0.220 OD540; the “Cell viability upon treatment … (2 U/ml), %” value is 84%; the “Cell viability upon treatment … (20 U/ml), OD540” value is reported as 0.234 OD540; the “Cell viability upon treatment … (20 U/ml), %” value came to 89%. Moreover, in data set [3], the “Cell viability in absence of TNF, OD540” value was determined as 0.262 OD540; the “Cell viability upon treatment with TNF (500 U/ml), no pretreatment, OD540” value was determined as 0.029 OD540; the “Cell viability upon treatment with TNF (500 U/ml), no pretreatment, %” value is recorded as 11%.
